# Source: article PMC9104438, “Application of a Fluorescence Anisotropy-Based Assay to Quantify Transglutaminase 2 Activity in Cell Lysates” (International Journal of Molecular Sciences, 2022)
# Legend:
# Experiment in all cases: FA-based assay, characterization of irreversible inhibitors
# hTGase 1 = biological target: T1, hTGase 1 (Homo sapiens, UniProt P22735)
# T1 sequence (P22735 1-817): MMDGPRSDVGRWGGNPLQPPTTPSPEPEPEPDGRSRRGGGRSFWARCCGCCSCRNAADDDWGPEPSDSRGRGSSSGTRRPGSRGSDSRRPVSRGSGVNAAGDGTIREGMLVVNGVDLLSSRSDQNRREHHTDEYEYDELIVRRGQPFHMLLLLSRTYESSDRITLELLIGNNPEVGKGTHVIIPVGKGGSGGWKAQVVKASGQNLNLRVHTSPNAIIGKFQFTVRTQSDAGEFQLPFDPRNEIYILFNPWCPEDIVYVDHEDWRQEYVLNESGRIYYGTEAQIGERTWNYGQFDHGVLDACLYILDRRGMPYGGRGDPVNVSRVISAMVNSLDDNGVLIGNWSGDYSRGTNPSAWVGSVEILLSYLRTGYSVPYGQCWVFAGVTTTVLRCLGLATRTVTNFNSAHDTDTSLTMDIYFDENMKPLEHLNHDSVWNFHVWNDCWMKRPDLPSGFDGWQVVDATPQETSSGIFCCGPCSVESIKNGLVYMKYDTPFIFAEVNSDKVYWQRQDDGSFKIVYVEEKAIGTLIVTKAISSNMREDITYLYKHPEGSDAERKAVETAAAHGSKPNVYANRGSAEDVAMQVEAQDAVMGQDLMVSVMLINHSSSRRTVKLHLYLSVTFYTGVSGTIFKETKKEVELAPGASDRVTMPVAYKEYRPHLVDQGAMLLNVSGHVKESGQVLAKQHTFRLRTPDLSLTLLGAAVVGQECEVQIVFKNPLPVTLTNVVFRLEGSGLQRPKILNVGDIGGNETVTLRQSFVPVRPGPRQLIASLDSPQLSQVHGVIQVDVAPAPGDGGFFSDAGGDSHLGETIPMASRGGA
# hTGase 3 = biological target: T2, hTGase 3 (Homo sapiens, UniProt Q08188)
# T2 sequence (Q08188 2-467 limits assumed): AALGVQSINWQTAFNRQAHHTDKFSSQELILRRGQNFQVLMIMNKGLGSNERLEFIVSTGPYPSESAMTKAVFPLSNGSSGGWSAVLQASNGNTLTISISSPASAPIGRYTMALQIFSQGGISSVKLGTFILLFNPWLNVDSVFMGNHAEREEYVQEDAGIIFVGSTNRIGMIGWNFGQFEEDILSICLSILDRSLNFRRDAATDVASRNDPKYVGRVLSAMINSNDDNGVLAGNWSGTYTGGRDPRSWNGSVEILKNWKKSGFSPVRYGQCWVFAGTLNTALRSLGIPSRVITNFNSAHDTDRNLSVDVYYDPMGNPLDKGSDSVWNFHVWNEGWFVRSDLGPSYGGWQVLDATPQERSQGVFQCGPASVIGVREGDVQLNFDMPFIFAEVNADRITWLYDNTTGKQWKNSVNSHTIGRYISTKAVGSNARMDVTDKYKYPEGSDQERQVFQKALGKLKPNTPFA
# T2 sequence (Q08188 468-693 partner limits assumed): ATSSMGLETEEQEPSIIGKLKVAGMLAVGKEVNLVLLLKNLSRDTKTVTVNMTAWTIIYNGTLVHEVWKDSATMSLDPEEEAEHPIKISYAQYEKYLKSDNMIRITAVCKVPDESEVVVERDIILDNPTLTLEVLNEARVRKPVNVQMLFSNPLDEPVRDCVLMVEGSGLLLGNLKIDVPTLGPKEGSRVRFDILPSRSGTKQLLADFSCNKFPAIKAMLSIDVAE
# hTGase 6 = biological target: T3, hTGase 6 (Homo sapiens, UniProt O95932)
# T3 sequence (O95932 1-706): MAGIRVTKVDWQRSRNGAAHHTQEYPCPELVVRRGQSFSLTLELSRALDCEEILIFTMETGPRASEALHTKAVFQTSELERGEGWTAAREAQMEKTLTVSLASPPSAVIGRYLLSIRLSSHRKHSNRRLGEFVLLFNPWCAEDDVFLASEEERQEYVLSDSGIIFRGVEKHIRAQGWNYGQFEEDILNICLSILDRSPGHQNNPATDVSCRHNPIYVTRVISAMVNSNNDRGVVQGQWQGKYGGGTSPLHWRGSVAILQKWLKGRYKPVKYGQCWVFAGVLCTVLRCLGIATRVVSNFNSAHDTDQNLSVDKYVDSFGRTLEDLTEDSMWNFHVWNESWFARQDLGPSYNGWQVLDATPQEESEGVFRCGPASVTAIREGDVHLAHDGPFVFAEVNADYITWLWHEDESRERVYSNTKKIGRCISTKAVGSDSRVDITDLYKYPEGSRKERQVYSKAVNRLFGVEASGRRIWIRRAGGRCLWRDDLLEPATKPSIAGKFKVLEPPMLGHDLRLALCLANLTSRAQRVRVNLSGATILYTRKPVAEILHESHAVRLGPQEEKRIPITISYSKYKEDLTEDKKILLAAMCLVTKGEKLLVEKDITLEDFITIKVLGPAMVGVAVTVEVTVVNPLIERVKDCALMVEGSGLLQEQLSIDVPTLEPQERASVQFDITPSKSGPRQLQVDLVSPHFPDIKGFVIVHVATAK
# hFXIIIa = biological target: T4, hFXIIIa (Homo sapiens, UniProt P00488)
# T4 sequence (P00488 39-732 limits assumed): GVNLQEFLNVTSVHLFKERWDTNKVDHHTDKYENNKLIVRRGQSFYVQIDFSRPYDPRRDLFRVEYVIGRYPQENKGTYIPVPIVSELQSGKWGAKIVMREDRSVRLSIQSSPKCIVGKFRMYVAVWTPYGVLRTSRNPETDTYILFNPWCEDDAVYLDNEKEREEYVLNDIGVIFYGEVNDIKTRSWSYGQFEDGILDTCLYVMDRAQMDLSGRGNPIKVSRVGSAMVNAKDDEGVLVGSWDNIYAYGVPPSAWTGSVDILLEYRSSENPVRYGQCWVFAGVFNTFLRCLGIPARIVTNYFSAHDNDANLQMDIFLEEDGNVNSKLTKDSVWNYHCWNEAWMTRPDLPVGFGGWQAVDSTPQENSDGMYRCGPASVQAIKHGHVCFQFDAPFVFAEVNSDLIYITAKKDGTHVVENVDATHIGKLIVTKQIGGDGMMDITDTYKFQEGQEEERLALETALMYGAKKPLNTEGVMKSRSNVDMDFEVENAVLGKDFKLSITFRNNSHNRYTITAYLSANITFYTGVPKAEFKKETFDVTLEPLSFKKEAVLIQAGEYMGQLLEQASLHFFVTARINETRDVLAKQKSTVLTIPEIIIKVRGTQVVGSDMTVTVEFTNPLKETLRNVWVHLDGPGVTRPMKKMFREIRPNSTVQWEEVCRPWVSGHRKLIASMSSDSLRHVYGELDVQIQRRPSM
IC50 (hTGase 1),IC50 (hTGase 3),IC50 (hTGase 6),IC50 (hFXIIIa),Structure (SMILES)
10.2 µM,> 100 µM,38.4 µM,26.2 µM,"C#Cc1cccc(N2CCN(C(=O)[C@H](CCCCNC(=O)C=C)NC(=O)Cc3ccccc3)CC2)n1 [Compound 3, N^α-Phenylacetyl-N^ε-acryloyl-L-lysine-4-(6-ethinylpyridin-2-yl)piperazide]"
> 30 µM,> 30 µM,> 30 µM,> 30 µM,C=CC(=O)NCCCC[C@H](NC(=O)Cc1ccccc1)C(=O)N1CCN(c2cccc(C)n2)CC1 [Compound 1]
8.99 µM,32.8 µM,19.5 µM,17.6 µM,C=CC(=O)NCCCC[C@H](NC(=O)Cc1ccccc1)C(=O)N1CCN(c2ccc([N+](=O)[O-])nc2)CC1 [Compound 2]

Structure (SMILES),IC50 (hTGase 1),IC50 (hTGase 3),IC50 (hTGase 6),IC50 (hFXIIIa)
"C=CC(=O)NCCCC[C@H](NC(=O)Cc1ccccc1)C(=O)N1CCN(c2cccc(-c3cn(CCOCCOCCOCCNC(=O)CCCC[C@@H]4SC[C@@H]5NC(=O)N[C@@H]54)nn3)n2)CC1 [Compound 4, N-(2-(2-(2-(2-(4-(6-(4-(N^6-acryloyl-N^2-(2-phenylacetyl)-L-lysyl)piperazin-1-yl)pyridin-2-yl)-1H-1,2,3-triazol-1-yl)ethoxy)ethoxy)ethoxy)ethyl)-5-((3aS,4S,6aR)-2-oxohexahydro-1H-thieno[3,4-d]imidazol-4-yl)pentanamide]",4.56 µM,> 100 µM,21.8 µM,7.12 µM
